Measured values published in patent US20210154162A1, “DRUG AND PHARMACEUTICAL COMPOSITION CONTAINING TRANSPORT PROTEIN INHIBITOR, AND USE” (Institute of Basic Medical Sciences Chinese Academy of …, priority 2018, published 2021).
Where a name gives a salt, the structure may show the parent alone. Each block holds one molecule with its values, some of them ahead of it.

Columns and labels:
PD-1 [1] = test: PD-1 expression in anti-CD3/CD28 bead-activated CD8+ T cells treated with Kyn or other tryptophan metabolites (flow cytometry); assay type: cell-based, mouse; details: other tryptophan metabolites 500 μM, 24 h
Protocol: (4) The isolated splenic CD8^+ T cells were incubated with anti-CD3/CD28 beads in the presence of different concentrations of Kyn. PD-1 expression was determined by flow cytometry.
(5) The experimental steps were the same as those of step (4), except that CD8^+ T cells were treated with 200 μM Kyn for different time periods as shown in FIG. 2E.
(6) Anti-CD3/CD28 bead-activated CTLs were treated with PBS, 200 μM Kyn or other metabolites (500 μM) from the tryptophan pathway (melatonin, kynurinic acid and indoxyle sulphate). After 24 h, PD-1 expression was determined by flow cytometry.

PD-1 [2] = test: PD-1 expression in activated CD8+ T cells treated with TCDD (qPCR, flow cytometry); assay type: cell-based, mouse; details: 48 h
Protocol: (7) Activated CD8^+ T cells were treated with TCDD for 48 h and then PD-1 expression was analyzed by qPCR (left) and flow cytometry (right). The data represented mean±SEM.

PD-1 [3] = test: Effect of SAR and BCH on PD-1 expression in human peripheral blood CD8+ T cells (flow cytometry); assay type: cell-based; details: breast cancer patients, 200 μM Kyn + 10 mM SAR or 100 μM BCH, 48 h
Protocol: Mononuclear cells were isolated and obtained from the peripheral whole blood of breast cancer patients by using Ficoll. CD8^+ T cells were sorted by magnetic beads, and seeded into a U-shaped bottom 96-well plate (100000 cells/well) while anti-CD3/CD28 magnetic beads were added to activate T cells. The culture medium was RPMI-1640 added with 10 ng/mL human IL-2. Cells were grouped and treated with drugs as follows.
(§1) Control group 1 (PBS): culture medium+PBS;
(§2) Experimental group 2 (Kyn): culture medium+200 μM Kyn;
Experimental group 3 (Kyn+SAR): culture medium+200 μM Kyn+10 mM SAR; Experimental group 4 (Kyn+BCH): culture medium+200 μM Kyn+100 μM BCH;
(§3) The expression level of PD-1 in CD8^+ T cells of each group was determined by flow cytometry after 48 h.

PD-1 [4] = test: Effect of SAR and BCH on PD-1 expression in mouse CD8+ T cells (flow cytometry); assay type: cell-based; details: 200 μM Kyn + 10 mM SAR or 100 μM BCH, 48 h
Protocol: Mouse splenic CD8^+ T cells were obtained by magnetic bead sorting, and seeded into a U-shaped bottom 96-well plate (100000 cells/well) while anti-CD3/CD28 magnetic beads were added to activate T cells. The culture medium was RPMI-1640 added with 10 ng/mL mouse IL-2 and […] β-mercaptoethanol. Cells were grouped and treated with drugs as follows.
as §1, §2
Experimental group 3 (Kyn+SAR): culture medium+200 μM Kyn+10 mM SAR;
Experimental group 4 (Kyn+BCH): culture medium+200 μM Kyn+100 μM BCH;
as §3

SLC7A8 and PAT4 = test: Kyn consumption by activated CD8+ T cells with SLC7A8/PAT4 inhibition or knockdown (ELISA); assay type: cell-based, mouse; details: Kyn 200 μM, 48 h
Protocol: (3) Scramble shRNA or shRNA against SLC7A8 and PAT4 were delivered via retrovirus to activated CD8^+ T cells for 24 h, and then the transduced T cells were treated with Kyn (200 μM) for 48 h. Kyn levels in the supernatants were determined by ELISA and the Kyn consumption was calculated.

OVA-B16 cells = test: Effect of SAR and BCH on killing of OVA-B16 cells by OT-1 CD8+ T cells (apoptosis, flow cytometry); assay type: cell-based, mouse; details: T cells pretreated 24 h with 10 mM SAR or 100 μM BCH; co-culture 1:10, 4 hours
Protocol: Splenic CD8^+ T cells of OT-1 mouse were obtained by magnetic bead sorting and seeded into a U-shaped bottom 96-well plate (100000 cells/well). Cells were grouped and treated with drugs as follows.
as §1
Experimental group 2 (SAR): culture medium+10 mM SAR;
Experimental group 3 (BCH): culture medium+100 μM BCH;
After T cells were pretreated for 24 hours, 3D-cultured OVA-B16 cells were co-cultured with OT-1 CD8^+ T cells at a ratio of 1:10, and the apoptosis of OVA-B16 cells was determined by flow cytometry after 4 hours.

PD-1 [5] = test: AhR activity and PD-1 expression in CD8+ T cells with SLC7A8/PAT4 inhibition or knockdown; assay type: cell-based, mouse; details: for PD-1 upregulation: Kyn 200 μM, 48 h; for AhR activity: T cells treated with transporter inhibitor
Protocol: (4) The experimental steps were the same as those of step (3), except that the expression of PD-1 was analyzed by flow cytometry.

OVA-B16 TRCs = test: OT-1 T cell cytotoxicity to OVA-B16 TRCs with SLC7A8/PAT4 inhibition or knockdown; assay type: cell-based, mouse; details: co-culture
Protocol: (5) Activated OT-1 T cells were transfected with scramble shRNA, PAT4 shRNAs (Sh1 and Sh2) or SLC7A8 shRNAs (Sh1 and Sh2) for 72 h, and then co-cultured with OVA-B16 TRCs. TRC apoptosis was analyzed by flow cytometry.

PAT4 and SLC7A8 [6] = test: PAT4 and SLC7A8 expression in CD8+ T cells from breast cancer patients (real-time PCR); assay type: cell-based, human; details: Kyn/DMF (20 μM) or Kyn/CH (50 μM), 48 h
Protocol: (8) CD8^+ T cells from breast cancer patients were treated with PBS, Kyn ([…] (20 μM) or Kyn/CH (50 μM) for 48 h. The expression of PAT4 and SLC7A8 was determined by real-time PCR. The determination results were as shown in FIG. 7I.

PD-1 [7] = test: PD-1 expression in human CD8+ T cells treated with Kyn and AhR inhibitors (flow cytometry); assay type: cell-based; details: human CD8+ T cells, Kyn plus inhibitor (DMF 20 μM), 48 h
Protocol: (4) CD8^+ T cells isolated from PBMCs of patients with breast cancer or lung cancer were activated by anti-CD3/CD28 beads and treated with PBS, Kyn (200 μM) or Kyn/DMF (20 μM) for 48 h. The expression of PD-1 was determined by flow cytometry.
(5) CD8^+ T cells isolated from patients with breast cancer or lung cancer were treated with DMF (20 μM) for 48 h. PD-1 expression was determined by flow cytometry (n=6).

AhR = test: PD-1 expression in activated CD8+ T cells treated with Kyn plus AhR inhibitor (flow cytometry); assay type: cell-based, mouse; details: Kyn plus inhibitor (DMF 10 or 20 μM), 72 h
Protocol: (4) CD8^+ T cells activated by anti-CD3/CD28 beads were treated with PBS, Kyn or Kyn/DMF (10 or 20 μM) for 72 h. The expression of PD-1 was determined by flow cytometry.

PAT4 and SLC7A8 [8] = test: PAT4 and SLC7A8 expression in activated CD8+ T cells (real-time PCR, immunostaining); assay type: cell-based, mouse; details: activated CD8+ T cells, Kyn/CH-223191 (10 μM) or Kyn/DMF (20 μM), 48 h
Protocol: (2) Activated CD8^+ T cells were treated with PBS or Kyn (200 μM) for 24 h. The expression of PAT4 and SLC7A8 was determined by real-time PCR (left) and immunostaining (right). Bar, […].
(6) The mRNA expression of PAT4 and SLC7A8 was determined in activated CD8^+ T cells treated with PBS, Kyn, Kyn/CH-223191 (10 μM) or Kyn/DMF (20 μM) for 48 h.

[9] = target: T1, tryptophan transporter SLC1A5 (Mus musculus, UniProt P51912); test: Effect of GPNA on the uptake of tryptophan by tumor cells (ELISA of lysates); assay type: cell-based; details: OVA-B16 cells, 50 ng/mL IFN-γ, 24 h
T1 construct: endogenous in cells; host or cells: mouse OVA-B16 melanoma cells
T1 sequence (P51912 1-553): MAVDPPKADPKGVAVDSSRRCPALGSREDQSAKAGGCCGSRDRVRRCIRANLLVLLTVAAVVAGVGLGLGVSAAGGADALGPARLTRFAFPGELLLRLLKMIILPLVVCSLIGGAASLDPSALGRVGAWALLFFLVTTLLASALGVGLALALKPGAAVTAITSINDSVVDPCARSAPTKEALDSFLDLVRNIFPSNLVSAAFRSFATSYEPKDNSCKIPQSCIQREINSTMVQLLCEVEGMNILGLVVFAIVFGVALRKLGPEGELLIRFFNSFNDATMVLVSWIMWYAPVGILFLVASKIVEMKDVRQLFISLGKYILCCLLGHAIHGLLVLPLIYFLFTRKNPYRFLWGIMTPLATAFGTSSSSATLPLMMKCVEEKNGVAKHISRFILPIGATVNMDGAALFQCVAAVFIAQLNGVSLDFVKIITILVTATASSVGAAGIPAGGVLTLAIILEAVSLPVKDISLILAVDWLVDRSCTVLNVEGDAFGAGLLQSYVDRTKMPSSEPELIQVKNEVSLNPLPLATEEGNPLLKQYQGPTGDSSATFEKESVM
Protocol: Mouse OVA-B16 cells were cultured in RPMI-1640 culture medium in vitro and were group and treated as follows.
as §1
Control group 2 (GPNA): culture medium+10 μM GPNA;
Experimental group 3 (IFN-γ): culture medium+50 ng/mL IFN-γ;
Experimental group 4 (IFN-γ+GPNA): culture medium+50 ng/mL IFN-γ+10 μM GPNA;
The cells in each group were collected after 24 h and ultrasonically broken, the concentrations of tryptophan in the lysates were determined by ELISA, and BCA protein assay was carried out at the same time.

Molecule: O=C(O)c1cc(=O)c2ccccc2[nH]1 [kynurenic acid]
PD-1 expression (PD-1 [1]): none of them was able to alter PD-1 expression

Molecule: COc1ccc2[nH]cc(CCNC(C)=O)c2c1 [melatonin]
PD-1 expression (PD-1 [1]): none of them was able to alter PD-1 expression

Molecule: Clc1cc2c(cc1Cl)Oc1cc(Cl)c(Cl)cc1O2 [TCDD]
PD-1 expression (PD-1 [2]): upregulated

Molecule: O=S(=O)(O)Oc1c[nH]c2ccccc12 [indoxyl sulfate]
PD-1 expression (PD-1 [1]): none of them was able to alter PD-1 expression

Molecule: NC1(C(=O)O)CC2CCC1C2 (centres unmarked) [BCH, 2-amino-2-norbornanecarboxylic acid]
expression of PD-1 in CD8+ T cells (PD-1 [3]): significantly reducing | expression of PD-1 in CD8+ T cells (PD-1 [4]): significantly reducing | entry of Kyn into T cells (SLC7A8 and PAT4): blocked | apoptosis ratio of OVA-B16 tumor cells (OVA-B16 cells): increased significantly | PD-1 upregulation (PD-1 [5]): abolished | AhR activity (PD-1 [5]): inhibited | OT-1 T cell cytotoxicity to OVA-B16 TRCs (OVA-B16 TRCs): enhanced

Molecule: Cc1ccccc1N=Nc1ccc(NC(=O)c2ccnn2C)c(C)c1 [CH-223191]
Kyn-induced upregulation of SLC7A8 and PAT4 (PAT4 and SLC7A8 [6]): blocked | Kyn-induced PD-1 upregulation (PD-1 [7]): inhibited | Kyn-dependent upsurge of PD-1 (AhR): thwarted | Kyn-induced upregulation of SLC7A8 and PAT4 (PAT4 and SLC7A8 [8]): effectively inhibiting

Molecule: CNCC(=O)O [SAR, sarcosine]
expression of PD-1 in CD8+ T cells (PD-1 [3]): significantly reducing | expression of PD-1 in CD8+ T cells (PD-1 [4]): significantly reducing | entry of Kyn into T cells (SLC7A8 and PAT4): blocked | apoptosis ratio of OVA-B16 tumor cells (OVA-B16 cells): increased significantly | PD-1 upregulation (PD-1 [5]): abolished | AhR activity (PD-1 [5]): inhibited | OT-1 T cell cytotoxicity to OVA-B16 TRCs (OVA-B16 TRCs): enhanced

uptake of tryptophan by tumor cells [9]: significantly increasing
B1: IFN-γ: recombinant IFN-γ purchased from R & D Systems (protein, UniProt P01579 24-161, looked up)
Interferon gamma: QDPYVKEAENLKKYFNAGHSDVADNGTLFLGILKNWKEESDRKIMQSQIVSFYFKLFKNFKDDQSIQKSVETIKEDMNVKFFNSNKKKRDDFEKLTNYSVTDLNVQRKAIHELIQVMAELSPAAKTGKRKRSQMLFRG
